From patent publication US20190298661A1, “Transdermal Delivery of Phenethylamine Monoamine Releasers” (priority 2016, published 2019)
Read-outs that look alike come from different tables or passages of the source.

Legend:
NET = experiment: Release activity of phenethylamine analogs, NET; assay type: biochemical; settings: ratio of EC50 values
SERT = SERT (Rattus norvegicus, UniProt P31652); experiment: Release activity of phenethylamine analogs, SERT; assay type: biochemical
DAT [1] = experiment: Release activity of phenethylamine analogs, DAT; assay type: biochemical; settings: ratio of EC50 values
EPIDERM = experiment: Skin irritation potential of formulations, EPIDERM 3 dimensional model; settings: two formulations reaching therapeutic flux
Description: The skin irritation potential of our formulations were tested using EPIDERM™, which is a 3 dimensional model used to assess skin irritation.

[2] = In vitro skin permeation study, vertical static Franz-type diffusion cells, 24 h; assay type: in vitro ADME, human; settings: for flux enhancement compared to propylene glycol only group: base 40 mg/mL; for calculated passive flux over 24 hours: base form, 40 mg/ml; for percent permeated through the skin within 24 hours: base; for average amount permeated across dermatomed human skin: liquid base form; for flux / flux with 10% lauric acid versus propylene glycol alone: base 20 mg/mL
Description: To test this prediction, skin permeation studies were conducted with 4-benzylpiperidine, phenmetrazine, and PAL-353 (3-flouroamphetamine) Based on the required dosing and technical capacity of patch technology, one objective was to develop a 24-hour patch. As such, the skin permeation studies were performed for 24 hours using vertical static Franz-type diffusion cells.
The recirculating water bath system was maintained at 37° C. to bring the skin surface temperature to 32° C. Each Franz cell comprised of a donor compartment containing the drug and a receiver compartment containing 1×PBS at pH 7.4 to ensure a diffusion gradient, with human dermatomed skin (described below) clamped between the two compartments. Permeation was followed by detection of drug in the receiver compartment using an alliance HPLC Waters 2695 Separations Module attached to a Waters UV detector system. A prodigy 5 u ODS (2) 150×4.60 mm 5 micron column with mobile phase of acetonitrile and water (0.05% TFA) at a flow rate of 1 mL/min and an injection volume 20 μL, with a retention time of 5.5 min, was detected at 259 nm wavelength. The same permeation and HPLC protocol was followed with 6 Franz cells (n=6) for each condition.
PAL-353 (3-flouroamphetamine) (10 mg/mL in a vehicle suitable for the enhancement technique being used) was placed in the donor compartment of the Franz cell.
The permeation of phenmetrazine and PAL-353 (3-flouroamphetamine) (3-FA) through dermatomed human cadaver skin was further studied using static Franz diffusion cells. Permeated drugs were quantified using a validated HPLC-UV method. The passive permeation of phenmetrazine and 3-FA was evaluated at the concentrations of 10 (phenmetrazine fumarate), 20 (phenmetrazine and 3-FA bases) and 40 (phenmetrazine and 3-FA bases) mg/mL in propylene glycol (PG). Further, the enhancement effect of oleic acid (5% w/w), oleyl alcohol (5% and 10% w/w) and lauric acid (10% w/w) on the permeation of phenmetrazine and 3-FA bases at 20 and 40 mg/mL was investigated.
Chemical permeation enhancers belonging to fatty acid or fatty alcohol group, oleic acid, oleyl alcohol and lauric acid were incorporated to improve the permeation rate of phenmetrazine (40 mg/mL) and 3-flouroamphetamine (20 mg/mL).
Iontophoretic delivery of PAL-353 across dermatomed human skin was also investigated. The donor chamber was filled with 500 μL of PAL-353 solution (10 mg/ml; 54% of saturation solubility) in 10 mM PBS, pH 7.4 containing 25 mM sodium chloride (n=4). The pH of the donor formulation as measured using glass electrode was around 4.0. Anodal iontophoresis was conducted where silver (anode) and silver chloride electrodes (cathode) were placed in the donor chamber and sampling port of the receptor chamber, respectively. It was ensured that there was no contact between the anode and skin in order to avoid skin damage due to high local voltage. The electrodes were then coupled in series to a source of constant current supply (Keithley 2400 Source Meter®, Keithley Instruments Inc., Cleveland, Ohio, USA). A current density of 0.5 mA/cm^2 was applied for 4 h. However, the total duration of the permeation study was 24 h and sampling was done at 0 h, 1 h, 2 h, 3 h, 4 h, 5 h, 6 h, 8 h, 22 h and 24 h.
This study was repeated keeping all the parameters same except that no current was applied (n=4). This group served as the passive control for comparison of the iontophoretic delivery of PAL-353 across human skin. Also, in a separate study, for these two groups, after 4 h, the formulations were removed and current was stopped in the iontophoresis group. Skin resistance was then measured using the procedure explained in section 2.2.3. Results have been presented as mean±SE.
Lag time was calculated as the x-intercept of the extrapolated linear portion of the permeation profiles (cumulative drug permeated/cm^2 plotted against the time). […]

[3] = www.chemspider.com; cited from earlier work
DAT [4] = target: DAT (Rattus norvegicus, UniProt P23977); experiment: Release activity of phenethylamine analogs, DAT; assay type: biochemical
[5] = 100 mg of 2% HPC gel containing 10 mg of drug, 24 h

Chain of SERT (P31652 whole entry): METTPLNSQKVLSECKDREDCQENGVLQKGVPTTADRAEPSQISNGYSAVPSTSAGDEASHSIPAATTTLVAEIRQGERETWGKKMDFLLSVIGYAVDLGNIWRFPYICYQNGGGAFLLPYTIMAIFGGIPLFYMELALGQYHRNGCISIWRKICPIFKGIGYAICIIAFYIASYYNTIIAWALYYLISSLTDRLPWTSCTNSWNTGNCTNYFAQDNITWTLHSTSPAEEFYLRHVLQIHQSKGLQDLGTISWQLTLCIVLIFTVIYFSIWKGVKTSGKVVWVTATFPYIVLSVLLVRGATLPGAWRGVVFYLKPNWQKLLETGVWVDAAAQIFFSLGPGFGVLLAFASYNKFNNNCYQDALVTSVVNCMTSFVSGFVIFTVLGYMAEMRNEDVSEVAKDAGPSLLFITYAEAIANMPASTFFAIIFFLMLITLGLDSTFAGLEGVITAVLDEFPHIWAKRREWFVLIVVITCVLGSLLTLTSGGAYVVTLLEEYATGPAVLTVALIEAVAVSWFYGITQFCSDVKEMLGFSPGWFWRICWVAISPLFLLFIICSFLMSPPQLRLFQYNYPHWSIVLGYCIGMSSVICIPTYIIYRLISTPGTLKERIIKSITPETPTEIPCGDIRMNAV
Chain of DAT (Rattus norvegicus, UniProt P23977) (P23977 whole entry): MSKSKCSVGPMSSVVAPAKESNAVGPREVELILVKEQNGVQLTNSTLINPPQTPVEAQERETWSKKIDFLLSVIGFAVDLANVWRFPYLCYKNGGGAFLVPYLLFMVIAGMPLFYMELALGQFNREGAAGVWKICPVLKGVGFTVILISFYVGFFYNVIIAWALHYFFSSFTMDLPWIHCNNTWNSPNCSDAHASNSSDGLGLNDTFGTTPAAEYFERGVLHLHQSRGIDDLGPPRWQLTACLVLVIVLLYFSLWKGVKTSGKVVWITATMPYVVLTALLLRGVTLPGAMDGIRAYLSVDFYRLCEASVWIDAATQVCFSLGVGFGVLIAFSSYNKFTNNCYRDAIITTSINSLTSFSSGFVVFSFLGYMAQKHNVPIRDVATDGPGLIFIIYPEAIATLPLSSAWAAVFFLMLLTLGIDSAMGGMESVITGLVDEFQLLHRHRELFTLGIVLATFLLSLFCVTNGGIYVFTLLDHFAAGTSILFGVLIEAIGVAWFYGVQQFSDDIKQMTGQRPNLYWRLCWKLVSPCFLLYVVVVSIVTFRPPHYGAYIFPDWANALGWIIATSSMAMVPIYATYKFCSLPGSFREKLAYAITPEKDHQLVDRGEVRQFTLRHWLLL

Compound: COc1cccc(CC(C)N)c1 (centres unmarked) [PAL-161]
- SERT/NET (NET): 5.7
- EC50 (SERT): 328 nM
- SERT/DA (DAT [1]): 3.2

Compound: CC1NCCOC1c1ccccc1 (centres unmarked) [phenmetrazine, Phenmetrazine, reference compound]
- predicted skin irritation of formulations reaching therapeutic flux (EPIDERM): irritant
- flux increase compared to group without enhancer ([2]; 40 mg/mL, 5% w/w oleyl alcohol in PG): ~10 folds
- efficiency of oleyl alcohol as permeation enhancer over oleic acid ([2]; 40 mg/mL, both enhancers at 5% w/w): 53.4%
- flux enhancement by oleyl alcohol compared to lauric acid ([2]; 40 mg/mL, irrespective of oleyl alcohol concentration): ~240%
- flux enhancement compared to propylene glycol only group ([2]; 5% w/w oleic acid in PG): 7.6 fold
- flux enhancement compared to propylene glycol only group ([2]; 10% w/w lauric acid in PG): 3.4 fold
- flux enhancement compared to propylene glycol only group ([2]; 10% w/w oleyl alcohol in PG): ~10 fold
- flux enhancement compared to propylene glycol only group ([2]; 10% w/w oleyl alcohol in PG, listed as phenmetrazine base): 11.4 fold
- calculated passive flux over 24 hours ([2]; passive): 359.05±82.36 μg/cm^2
- percent permeated through the skin within 24 hours ([2]; 20 mg/mL in PG, passive): 1.86±0.41%
- percent permeated through the skin within 24 hours ([2]; 40 mg/mL in PG, passive): 5.74±1.32%

Compound: C[C@H]1[C@H](c2ccccc2)OCCN1C [phendimetrazine]
- log P [3]: 2.17

Compound: c1ccc(CC2CCNCC2)cc1 [4-benzylpiperidine, 4-Benzylpiperidine]
- average amount permeated across human dermatomed skin [2, 5]: 1824±425 μg/cm^2
- share of drug permeated across human dermatomed skin [2, 5]: about 18%
- average amount permeated across dermatomed human skin ([2]; 100 μL of 1 mg/ml in PG, passive, 24 h): 33±8 μg/cm^2
- average amount permeated across dermatomed human skin ([2]; 100 μL of 10 mg/ml in PG, passive, 24 h): 288±71 μg/cm^2

Compound: CC(N)Cc1ccc(F)cc1 (centres unmarked) [PAL-303]
- SERT/NET (NET): 33.5
- EC50 (SERT): 939 nM
- SERT/DA (DAT [1]): 18.2

Compound: COc1ccc(CC(C)N)cc1 (centres unmarked) [PAL-162]
- SERT/NET (NET): 0.4
- EC50 (SERT): 63.3 nM
- SERT/DA (DAT [1]): 0.1

Compound: CC(N)Cc1cccc(C(F)(F)F)c1 (centres unmarked) [PAL-677]
- SERT/NET (NET): 0.6
- EC50 (SERT): 104 nM
- SERT/DA (DAT [1]): 0.1

Compound: CC(N)Cc1cccc(F)c1 (centres unmarked) [PAL-353, 3-fluoroamphetamine]
- SERT/NET (NET): 120
- EC50 (SERT): 1940 nM
- predicted skin irritation of formulations reaching therapeutic flux (EPIDERM): irritant
- passive permeation over 24 h ([2]; 10 mg/ml in 10 mM PBS, no current): 3.94±0.53 μg/cm^2
- flux enhancement compared to PG alone ([2]; 20 mg/mL, 5% w/w oleic acid, not significant): ~40%
- flux as percent of the control group ([2]; 20 mg/mL, 5% w/w oleyl alcohol in PG): 389%
- flux as percent of the control group ([2]; 20 mg/mL, 10% w/w oleyl alcohol in PG): 370%
- increase of cumulative drug permeation by iontophoresis versus passive ([2]; PBS, 24 h period): 548 fold
- enhancement of skin permeation by ablative laser versus passive ([2]; PG, 24 h): 508 times
- lag time ([2]; anodal iontophoresis, x-intercept of linear portion of permeation profile): around 3.5 h
- flux ([2]; 5% oleic acid in PG): 109.8±17.94 μg/cm^2/h
- flux ([2]; 10% oleyl alcohol in PG): 292.0±31.70 μg/cm^2/h
- flux with 10% lauric acid versus propylene glycol alone ([2]; 10% w/w lauric acid in PG, listed as 3-FA base): did not show significant difference
- flux with 10% lauric acid versus propylene glycol alone ([2]; 10% w/w lauric acid in PG, listed as 3-flouroamphetamine): did not impact the flux at all
- calculated passive flux over 24 hours ([2]; passive): 3784.62±173.52 μg/cm^2
- percent permeated through the skin within 24 hours ([2]; 20 mg/mL in PG, passive): 41.4±1.18%
- percent permeated through the skin within 24 hours ([2]; 40 mg/mL in PG, passive): 74.45±3.43%
- enhancement by maltose microneedles versus control ([2]; hydrochloride in PG, 24 h): 7 fold
- permeation after 24 h, skin pre-treated with maltose microneedles ([2]; hydrochloride, solution in PG): 7.35±4.87 μg/cm^2
- passive permeation after 24 h ([2]; hydrochloride, solution in propylene glycol (control)): 1.03±0.17 μg/cm^2
- passive permeation in PBS compared to PG ([2]; passive): approximately four
- permeation over 24 hours with anodal iontophoresis ([2]; salt form (hydrochloride), 10 mg/ml in PBS, 0.5 mA/cm^2 for 4 h, 24 h): 2159.43±301.14 μg/cm^2
- permeation after skin microporation by ablative laser ([2]; solution in PG, P.L.E.A.S.E. laser, 24 h): 523.24±86.79 μg/cm^2
- SERT/DA (DAT [1]): 80

Compound: CC(N)Cc1ccccc1C(F)(F)F (centres unmarked) [PAL-307]
- EC50 (SERT): > 10000 nM

Compound: CCc1cccc(CC(C)N)c1 (centres unmarked) [PAL-1386]
- SERT/NET (NET): 1.4
- EC50 (SERT): 160 nM
- SERT/DA (DAT [1]): 1.3

Compound: CC(N)Cc1ccc(C(C)C)cc1 (centres unmarked) [PAL-334]
- EC50 (SERT): 79.2 nM

Compound: Cc1cccc(CC(C)N)c1 (centres unmarked) [PAL-314]
- SERT/NET (NET): 11.9
- EC50 (SERT): 218 nM
- SERT/DA (DAT [1]): 6.5

Compound: CC(N)Cc1ccc(Cl)cc1 (centres unmarked) [PAL-24]
- SERT/NET (NET): 0.9
- EC50 (SERT): 21.5 nM
- SERT/DA (DAT [1]): 0.3

Compound: CCc1ccc(CC(C)N)cc1 (centres unmarked) [PAL-335]
- SERT/NET (NET): 0.3
- EC50 (SERT): 36.1 nM
- SERT/DA (DAT [1]): 0.1

Compound: Cc1ccc(CC(C)N)cc1 (centres unmarked) [PAL-313]
- SERT/NET (NET): 2.4
- EC50 (SERT): 53.4 nM
- SERT/DA (DAT [1]): 1.2

Compound: Phenmetrazine fumarate [reference compound]
- passive permeation over 24 hours ([2]; 10 mg/mL in propylene glycol): no permeation

Compound: CC(N)Cc1ccc(OC(F)(F)F)cc1 (centres unmarked) [PAL-309]
- SERT/NET (NET): 0.2
- EC50 (SERT): 82.2 nM
- SERT/DA (DAT [1]): 0.0

Compound: CC(N)Cc1cccc(Cl)c1 (centres unmarked) [PAL-304]
- SERT/NET (NET): 12.8
- EC50 (SERT; read-out: EC50 SERT release): 120 nM
- SERT/DA (DAT [1]): 10.2
- EC50 (DAT [4]): 11.8 nM

Compound: Cc1ccccc1CC(C)N (centres unmarked) [PAL-315]
- SERT/NET (NET): 26.3
- EC50 (SERT): 973 nM
- SERT/DA (DAT [1]): 7.7
